Data from patent US20240389585A1, “METHOD FOR PROMOTING PLANT GROWTH” (priority 2021, published 2024).

Assays:
Complex soil microbiome = test: Crystal violet biofilm biomass, MeJA chemical analogs; format: cell-based; conditions: 20 hrs
Experimental: Complex soil microbiome was treated with various MeJA chemical analogs over 20 hrs and stained with CV. The full chemical name of the chemical analogs are as follows: DHJ: Dihydro jasmonic acid; MDHJ: Methyl dihydro jasmonate; MJ: Methyl jasmonate; MO: Methyl octanoate.
This method was used to get a proxy for biofilm biomass. Briefly, planktonic cells were discarded. 50 μL of 0.1% CV solution was added to the well very gently. The biofilm was stained for 10 minutes. The dye was removed gently. 100 μL of PBS was added to the well to wash off the excess CV. PBS was removed, and the wells were left to dry overnight. The next day, 200 ul of 1% SDS was added to each well and was resuspended vigorously with a pipette. After 20 minutes, 20 ul from the top suspension was removed and added to a new 96-well plate. The well was diluted with 180 ul of water and absorbance was checked at 595 nm on a spectrophotometer.
To identify the potential functional group of MeJA for its biofilm-inducing property, several jasmonic acid analogues were screened for their biofilm-inducing capability in the soil microbiome. The analogues were used to study biofilm induction in both complex soil microbiomes (FIG. 8).

soil microbiota [1] = test: Live confocal imaging of soil microbiota biofilm formation (SYTO9 nucleic acid stain, 3D biovolume); format: cell-based
Experimental: (§1) 5 g of JIFFY soil substrate was resuspended in 20 ml of PBS. This suspension was vortexed for 4 minutes and sonicated for 1 minute. It was then filtered through a strainer. The slurry that didn't pass through the strainer was again resuspended in 20 ml of PBS medium and subsequent steps were repeated twice. The filtrate was then centrifuged at 150G for 2 minutes to settle large soil particles and the supernatant was decanted into another tube. This supernatant was then centrifuged at 5500G for 5 minutes to obtain a bacterial pellet. This pellet was resuspended in 20 ml of soil extract medium. This suspension was referred to as “soil microbiota inoculum”. The final concentration in all inocula was around 1×10^8 bacteria per ml as quantified by Baclight bacterial counting kit (flow cytometry) or manual counting with a hemocytometer.
(§2) For the confocal imaging experiments, soil inoculum was enriched in soil extract media overnight at 37° C.
(§3) Soil microbiota inoculum was prepared as described in the section above. MeJA was added to the microbiota to achieve the desired concentration (0, 1, 5, 25 nM for nucleic acid imaging experiment, and 0 and 5 nM for matrix imaging experiment). […] 50 µL of SYTO™9 (Thermo cat. no. S34854) solution (final concentration of 5 μM) was also added to all the wells. For matrix imaging, FilmTracer™ SYPRO™ Ruby Biofilm Matrix Stain (Thermo, cat. no. F10318) was added instead (ready to use, 1×concentration). For live imaging, Zeiss LSM 900 with Airyscan (Definite Focus 2) was used and images were acquired every 30 minutes for 24 hours with 65×oil objective at the NUS Centre for Bioimaging Science (CBIS). For both the dyes (separate experiments), a 488 nm laser was used.
(§4) Image analysis was performed using BiofilmQ software ([…]). Images were aligned along the Z-axis and along time. 2-class Otsu thresholding was used to detect the signal against the background. Sensitivity was set based on thresholding feedback. The rest of the settings were kept at default. Biofilm-related global properties were calculated and exported. We mainly focused on the 3D biovolume of our samples. Linear mixed-effects were used to model the biovolume where time, treatment, and their interaction were the fixed effects, and every sample was considered a random effect (Table 1 and Table 2). Following packages from R were used: nlme (Pinheiro, J. et al., R package version 3.1-153 (2021)), ggplot2 (Wickham, H., Wiley Interdiscip. Rev. Comput. Stat. 3, 180-185 (2011)).

[2] = test system: microbial isolates from MeJA-induced complex biofilms; test: Biofilm assay of monoculture strains isolated from MeJA-induced biofilms; format: cell-based; conditions: 5 nM MeJA, crystal violet after 24 hours
Experimental: Complex microbiota biofilm exposed to volatile MeJA was scraped off and resuspended in PBS. Through serial dilution, this inoculum was plated on soil extract agar, minimal media agar, and LB agar. Colonies with unique morphology were picked and streaked onto a fresh LB plate to acquire single colonies. The isolated strains were identified using Sanger sequencing of the PCR product with primers 27F and […]. Their biofilm response to volatile MeJA was tested using “push-pull” setup (as described above for complex biofilms). Their response to soluble MeJA was tested by directly adding MeJA to the monoculture inoculum (final concentration of 5 nM). For both assays, biofilms were stained with crystal violet and quantified after 24 hours as explained in the biofilm staining protocol. The initial OD of the inoculum was 0.2.

[3] = test system: soil microbiota biofilm community; test: 16S rRNA gene amplicon quantitative microbiome profiling of VOC-exposed biofilm communities; conditions: 16 and 24 hours
Experimental: Using the push-pull airflow system, soil microbiota inoculum was exposed to four VOC treatments 1) soil VOCs; 2) WT Arabidopis rVOCs; 3) jmt Arabidopsis rVOCs; 4) jmt Arabidopsis rVOCs+MeJA. Biofilm and planktonic parts of the samples were collected from 28 wells after 16 and 24 hours and stored at −80° C. The collective sample from 28 wells was treated as a single experimental replicate. The whole experiment was repeated eight times.
Biofilm was scraped at specific timepoints and resuspended in PBS solution. DNA-RNA shield was added in 1:1 proportion and samples were stored at −80 C. Zymobiomics DNA miniprep kit was used to isolate DNA from the samples based on their protocol. 16S V4-V5 region was amplified using 515F-Y and 927R primers (Walters et al., mSystems 1 (2016)). 20 µL of reaction contained 2 μL of 10×DreamTaq buffer, 2 μL of 2 mM dNTP mix, 0.5 μL of each primer (10 µM), 0.5 μL of DreamTaq polymerase (5U/μL), 10 ng of template DNA, and molecular grade water to make up the volume. PCR conditions were as follows: initial denaturation at 95° C. for 3 minutes, 35 cycles of denaturation at 95° C. for 45 s, annealing at 50° C. for 45 s, extension at 68° C. for 90 s and final extension at 68° C. for 5 minutes. PCR products were purified with a Genejet PCR purification kit. Amplicon concentration was measured using Qubit DNA BR Kit and Qubit fluorometer. 16S amplicons were submitted for next-gen sequencing on Illumina MiSeq V3 Run (300 base pairs paired-end) at Singapore Centre for Life Science Engineering (SCELSE). Rarefaction analysis was performed to calculate appropriate depth for sequencing (FIG. 17B).
To enumerate the 16S rRNA gene copy numbers, the primer pair 515F and 806R (Walters, W. et al., MSystems 1, (2016)) were used in qPCR to amplify the 16S gene using Applied Biosystem real-time PCR system. The PCR assay mixture consists of 10 ul of PowerUp™ SYBR™ Green Master Mix, 1 ul of each primer from 10 µM stock, 1 ul of DNA of extracted DNA from the microbial population, and 7 ul of sterile nuclease-free water. The PCR amplification program encompassed an initial denaturation step at 95° C. for 3 min followed by 40 three-step cycles at 95° C. for 30 s, at 52° C. for 30 s and 72° C. for 30 s. Plasmid with the fragments of 16S rRNA gene part amplified with same primer pair was taken as standard for creating standard curve with known copy number for absolute quantification. Pearson correlation was calculated for the qPCR-derived copy number and the DNA yield from all the samples (FIG. 17D).
Raw and demultiplexed sequencing data was analysed as follows (also described in a flowchart in FIG. 17A): Primer and adapter sequences were removed using cutadapt (Martin, M., EMBnet.journal 17, 10-12 (2011)). […]

soil microbiome = test: Biofilm induction by liquid MeJA concentration range; format: cell-based; conditions: pure liquid MeJA
Experimental: Biofilm induction of the soil microbiome was tested with several concentrations of pure MeJA at the nanomolar level. It was confirmed that a concentration range from […] of MeJA was effective to induce biofilms without being detrimental to plant growth.

[4] = test system: soil microbiota biofilms (extracellular matrix proteins); test: Live confocal imaging of biofilm matrix formation (SYPRO Ruby, 3D biovolume); format: cell-based
Experimental: as §1, §2, §3, §4

soil microbiota [5] = test: Crystal violet biofilm biomass in push-pull dynamic system; format: cell-based; conditions: 5, 25 and 50 μmol MeJA spiked in soil chamber
Experimental: as §1
This system consists of an aerator/pump (to push air), 5 μm charcoal filter (to adsorb gaseous impurities), 0.22 μm filter (to trap microbial contamination), gas wash bottle (to moisturize the air), a source chamber (to host the source of volatiles), recipient chamber (to receive volatiles) and vacuum pump (to pull the air out) (FIG. 1D). […]
This method was used to get a proxy for biofilm biomass. […] The well was diluted with 180 ul of water and absorbance was checked at 595 nm on a spectrophotometer.

[6] = 5 nM MeJA, time-treatment interaction

CC/C=C\CC1=C(C)CCC1=O [Cis-jasmone, cis-jasmone]
potential for biofilm induction among jasmonic acid analogues (Complex soil microbiome): highest potential for biofilm induction

CCCCCC1C(=O)CCC1CC(=O)O (stereo not shown) [DHJ, Dihydro jasmonic acid]
potential for biofilm induction among jasmonic acid analogues (Complex soil microbiome): highest potential for biofilm induction

CC/C=C\CC1C(=O)CCC1CC(=O)OC (stereo not shown) [MeJA, Methyl jasmonate]
Linear mixed-effects model Value, Treatment1 nM (Biovolume) (soil microbiota [1]; 1 nM MeJA, SYTO9, imaging over 24 hours): −988.35
Linear mixed-effects model Value, Hours: Treatment1 nM (Biovolume) (soil microbiota [1]; 1 nM MeJA, time-treatment interaction): 106.209
time from which biovolumes differed (soil microbiota [1]; 5 nM MeJA): ≥ 15 h
interaction of time and treatment in mixed-effects model (soil microbiota [1]; 5 nM MeJA vs non-treated biofilms): statistically significant
biofilm growth trajectory (biovolume) (soil microbiota [1]; 5 nM MeJA, 0 to 24 hours, vs control): increasingly higher biofilm growth trajectory compared to the control
Linear mixed-effects model Value, Treatment5 nM (Biovolume) (soil microbiota [1]; 5 nM MeJA, SYTO9, imaging over 24 hours): −453.513
Linear mixed-effects model Value, Hours: Treatment5 nM (Biovolume) (soil microbiota [1]; [6]): 102.9409
Linear mixed-effects model Value, Treatment25 nM (Biovolume) (soil microbiota [1]; 25 nM MeJA, SYTO9, imaging over 24 hours): −1245.62
Linear mixed-effects model Value, Hours: Treatment25 nM (Biovolume) (soil microbiota [1]; 25 nM MeJA, time-treatment interaction): 90.7811
strains MeJA-responsive in biofilm formation, of nine tested [2]: six
share of biofilm community with significant shift in abundance ([3]; WT rVOCs vs soil VOCs, MeJA: jmt+MeJA vs jmt rVOCs): ~10%
number of promoted ASVs ([3]; vs respective control): 21 ASVs
number of repressed ASVs ([3]; vs respective control): 82 ASVs
number of responding ASVs ([3]; vs respective control): 103 ASVs
concentration effective to induce biofilms without being detrimental to plant growth (soil microbiome): ≥ 500 nM
time from which MeJA influence appeared in the matrix ([4]; 5 nM MeJA): ≥ 7 h
effect on biofilm matrix ([4]; 5 nM MeJA vs non-treated biofilm): promoted biofilm matrix compared to non-treated biofilm
Linear mixed-effects model Value, Treatment5 (matrix Biovolume) ([4]; 5 nM MeJA, SYPRO Ruby): 294.3537
Linear mixed-effects model Value, Hours: Treatment5 (matrix Biovolume) [4, 6]: 11.25
potency in biofilm promotion, volatile form (soil microbiota [5]): higher at low concentrations (5 μmol) and gradually declined in a dose-dependent manner
